# The source made the active and inactive calls. The calls are words filed in the database; no cut-off is given here.
# Tested on: P388
# Experiment: Antitumor activity against mouse P388 cells
# Type: functional, cell-based
structure (smiles),measurement,value
COc1cc(O)c2c(O[C@@H]3O[C@H](CO)[C@@H](O)[C@H](O)[C@H]3O)c3c(c4c2c1[C@@]1(C4)C(C)=CCCC1(C)C)[C@H](O)[C@@]1(O)CC(O)=C(C(N)=O)C(=O)[C@@]1(O)C3=O,Activity,inactive
